Laboratory results from publication PMC6352943, “Novel pyrazolo[3,4-d]pyrimidines: design, synthesis, anticancer activity, dual EGFR/ErbB2 receptor tyrosine kinases inhibitory activity, effects on cell cycle profile and caspase-3-mediated apoptosis” (Journal of Enzyme Inhibition and Medicinal Chemistry, 2019).

How the values were obtained:
Test in all cases: NCI 60 cell line single dose screen (SRB)
Type in all cases: cell-based
MDA-MB-435 = details: Homo sapiens; MDA-MB-435 (melanoma), single dose 10^−5 M, 48 h; read-out: Growth inhibition percentage
Description: (§1) Anticancer activity screening of the newly synthesised compounds was measured in vitro utilising 60 different human tumour cell lines provided by US National Cancer Institute according to previously reported standard procedure[27–29] as follows: Cells are inoculated into 96-well microtitre plates in 100 ml. After cell inoculation, the microtitre plates are incubated at 37 °C, 5% CO2, 95% air and 100% relative humidity for 24 h prior to addition of experimental compounds. After 24 h, two plates of each cell line are fixed in situ with TCA, to represent a measurement of the cell population for each cell line at the time of drug addition (Tz). Experimental compounds are solubilised in dimethyl sulphoxide at 400-fold the desired final maximum test concentration and stored frozen prior to use. At the time of compound addition, an aliquot of frozen concentrate is thawed and diluted to twice the desired final maximum test concentration with complete medium containing […] gentamicin. Aliquots of […] of the compounds dilutions are added to the appropriate microtitre wells already containing 100 ml of medium, resulting in the required final compound concentration. Following compound addition, the plates are incubated for an additional 48 h at 37 °C, 5% CO2, 95% air, and 100% relative humidity. For adherent cells, the assay is terminated by the addition of cold trichloroacetic acid (TCA). Cells are fixed in situ by the gentle addition of 50 ml of cold 50% (w/v) TCA (final concentration, 10% TCA) and incubated for 60 min at 4 °C. The supernatant is discarded, and the plates are washed five times with tap water and air-dried. Sulphorhodamine B (SRB) solution (100 ml) at 0.4% (w/v) in 1% acetic acid is added to each well, and plates are incubated for 10 min at room temperature. After staining, unbound dye is removed by washing five times with 1% acetic acid and the plates are air-dried. Bound stain is subsequently solubilised with 10 mM trizma base, and the absorbance is read on an automated plate reader at a wavelength of 515 nm. For suspension cells, the methodology is the same except that the assay is terminated by fixing settled cells at the bottom of the wells by gently adding 50 ml of 80% TCA (final concentration, 16% TCA). Using the absorbance measurements [time zero, (Tz), control growth, (C), and test growth in the presence of compound (Ti)], the percentage growth is calculated for each compound. Percentage growth inhibition is calculated as: [(Ti – Tz)/(C – Tz)] x 100 for concentrations for which Ti >/=Tz. [(Ti – Tz)/Tz] x 100 for concentrations for which Ti < Tz.

HCC-2998 = details: Homo sapiens; HCC-2998 (colon cancer), single dose 10^−5 M, 48 h; read-out: Growth inhibition percentage
Description: as §1

UO-31 = details: Homo sapiens; UO-31 (renal cancer), single dose 10^−5 M, 48 h; read-out: Growth inhibition percentage
Description: as §1

SF-268 = details: Homo sapiens; SF-268 (CNS cancer), single dose 10^−5 M, 48 h; read-out: Growth inhibition percentage
Description: as §1

SF-593 = details: Homo sapiens, SF-593 (CNS cancer), single dose 10^−5 M, 48 h, read-out: Growth inhibition percentage
Description: as §1

OVCAR-4 = details: Homo sapiens; OVCAR-4 (ovarian cancer), single dose 10^−5 M, 48 h; read-out: Growth inhibition percentage
Description: as §1

NCI-H322M = details: Homo sapiens; NCI-H322M (non-small cell lung cancer), single dose 10^−5 M, 48 h; read-out: Growth inhibition percentage
Description: as §1

MOLT-4 = details: Homo sapiens; MOLT-4 (leukemia), single dose 10^−5 M, 48 h; read-out: Growth inhibition percentage
Description: as §1

SN12C = details: Homo sapiens; SN12C (renal cancer), single dose 10^−5 M, 48 h; read-out: Growth inhibition percentage
Description: as §1

SNB-75 = details: Homo sapiens; SNB-75 (CNS cancer), single dose 10^−5 M, 48 h; read-out: Growth inhibition percentage
Description: as §1

MCF7 = details: Homo sapiens; MCF7 (breast cancer), single dose 10^−5 M, 48 h; read-out: Growth inhibition percentage
Description: as §1

IGROV1 = details: Homo sapiens, IGROV-1; IGROV1 (ovarian cancer), single dose 10^−5 M, 48 h; read-out: Growth inhibition percentage
Description: as §1

SK-MEL-5 = details: Homo sapiens; SK-MEL-5 (melanoma), single dose 10^−5 M, 48 h; read-out: Growth inhibition percentage
Description: as §1

MDA-MB-468 = details: Homo sapiens; MDA-MB-468 (breast cancer), single dose 10^−5 M, 48 h; read-out: Growth inhibition percentage
Description: as §1

SNB-19 = details: Homo sapiens; SNB-19 (CNS cancer), single dose 10^−5 M, 48 h; read-out: Growth inhibition percentage
Description: as §1

OVCAR-3 = details: Homo sapiens; OVCAR-3 (ovarian cancer), single dose 10^−5 M, 48 h; read-out: Growth inhibition percentage
Description: as §1

NCI-H460 = details: Homo sapiens; NCI-H460 (non-small cell lung cancer), single dose 10^−5 M, 48 h; read-out: Growth inhibition percentage
Description: as §1

SF-295 = details: Homo sapiens; SF-295 (CNS cancer), single dose 10^−5 M, 48 h; read-out: Growth inhibition percentage
Description: as §1

OVCAR-5 = details: Homo sapiens; OVCAR-5 (ovarian cancer), single dose 10^−5 M, 48 h; read-out: Growth inhibition percentage
Description: as §1

T-47D = details: Homo sapiens, T47D; T-47D (breast cancer), single dose 10^−5 M, 48 h; read-out: Growth inhibition percentage
Description: as §1

KM12 = details: Homo sapiens; KM12 (colon cancer), single dose 10^−5 M, 48 h; read-out: Growth inhibition percentage
Description: as §1

Structure (SMILES) | inhibition at 10 µM (MDA-MB-435) [%] | inhibition at 10 µM (HCC-2998) [%] | inhibition at 10 µM (UO-31) [%] | inhibition at 10 µM (SF-268) [%] | inhibition at 10 µM (SF-593) [%] | inhibition at 10 µM (OVCAR-4) [%] | inhibition at 10 µM (NCI-H322M) [%] | inhibition at 10 µM (MOLT-4) [%] | inhibition at 10 µM (SN12C) [%] | inhibition at 10 µM (SNB-75) [%] | inhibition at 10 µM (MCF7) [%] | inhibition at 10 µM (IGROV1) [%] | inhibition at 10 µM (SK-MEL-5) [%] | inhibition at 10 µM (MDA-MB-468) [%] | inhibition at 10 µM (SNB-19) [%] | inhibition at 10 µM (OVCAR-3) [%] | inhibition at 10 µM (NCI-H460) [%] | inhibition at 10 µM (SF-295) [%] | inhibition at 10 µM (OVCAR-5) [%] | inhibition at 10 µM (T-47D) [%] | also measured
Cc1nn(-c2ccc(F)cc2)c2nc[nH]c(=O)c12 [Compound 3, 1–(4-Fluorophenyl)-3-methyl-1H-pyrazolo[3,4-d]pyrimidin-4(5H)-one] | -7.05 | -2.16 | 11.7 | -1.71 | -0.99 | -8.19 | 5.19 | 3.3 | -2.5 | 0.29 | 2.7 | 5.29 | 0.31 | -11.5 | -3.69 | -5.82 | -9.62 | -4.14 | -10.4 | 0.23 | inhibition at 10 µM (KM12): 1.48%
Cc1nn(-c2ccc(F)cc2)c2ncnc(N)c12 [Compound 4, 1–(4-Fluorophenyl)-3-methyl-1H-pyrazolo[3,4-d]pyrimidin-4-amine] | -5.15 | -2.52 | 11.3 | 3.71 | -1.06 | -4.38 | 7.26 | 0.58 | -1.4 | 8.18 | 9.82 | 11.1 | 2 | -13.2 | -9.19 | -2.81 | -9.3 | -3.53 | -4.61 | 4.18 | inhibition at 10 µM (KM12): 3.5%
Cc1nn(-c2ccc(F)cc2)c2nc(N)nc(N)c12 [Compound 5, 1–(4-Fluorophenyl)-3-methyl-1H-pyrazolo[3,4-d]pyrimidine-4,6-diamine] | -7.73 | 3.79 | 14.2 | -2.3 | 2.81 | 1.28 | 8.14 | -0.48 | -2.74 | 5.33 | 0.73 | 6.71 | 0.86 | -15.5 | -7.94 | -12.9 | -18.8 | -1.89 | -1.61 | -2.65 | inhibition at 10 µM (KM12): 1.24%
Cc1nn(-c2ccc(F)cc2)c2ncnc(Cl)c12 [Compound 6, 4-Chloro-1–(4-fluorophenyl)-3-methyl-1H-pyrazolo[3,4-d]pyrimidine] | -8.83 | -5.66 | 11.8 | -1.16 | -7.81 | -0.8 | 5.32 | 13.8 | 1.02 | 6.36 | 11.6 | 24.4 | 5.94 | 8.7 | 7.79 | -8.39 | -0.07 | -4.11 | -12.3 | 0.28 | inhibition at 10 µM (KM12): 0.99%
Cc1ccc(Nc2ncnc3c2c(C)nn3-c2ccc(F)cc2)cc1 [Compound 7c, 1–(4-Fluorophenyl)-3-methyl-N-(p-tolyl)-1H-pyrazolo[3,4-d]-pyrimidin-4-amine] | -6.94 | 1.34 | 8.66 | 1.06 | -1.94 | -3.91 | 10 | 1.83 | 48.4 | -5.2 | 6.19 | 1.54 | -3.74 | -15 | 7.21 | -6.58 | -9.33 | -3.83 | -0.5 | 14.6 | inhibition at 10 µM (KM12): -1.11%
Cc1nn(-c2ccc(F)cc2)c2ncnc(Nc3ccc(F)c(Cl)c3)c12 [Compound 7d, N-(3-Chloro-4-fluorophenyl)-1–(4-fluorophenyl)-3-methyl-1H-pyrazolo[3,4-d] pyrimidin-4-amine] | 0.1 | 1.79 | 25.5 | 3.94 | 22.6 | 53.1 | 12 | 4.27 | 21.5 | 25 | 15.7 | 27.6 | -0.44 | -1.69 | 20.4 | 9.57 | 58.5 | 40 | 4.92 | 27.4 | inhibition at 10 µM (KM12): 1.96%
Cc1nn(-c2ccc(F)cc2)c2ncnc(N3CCOCC3)c12 [Compound 8a, 1–(4-Fluorophenyl)-3-methyl-4-morpholino-1H-pyrazolo[3,4-d]pyrimidine] | -2.24 | 2.41 | 5.57 | -0.79 | -8.46 | -10.7 | 5.51 | 5.79 | 1.12 | 0.92 | 9.07 | -3.29 | -0.67 | -7.8 | 5.14 | -5.65 | -8.23 | 0.61 | -3.95 | -22.2 | inhibition at 10 µM (KM12): 0.04%
